Measurements: patent US20260193170A1 (University of Copenhagen, priority 2022, published 2026)

Target: T1, human Keap1 Kelch domain (Homo sapiens, UniProt Q14145)
T1 construct: human Keap1 Kelch domain (residue 321-609, UniProt Q14145); made in house; host or cells: Escherichia coli BL21 (DE3) pLysS, pRSET A vector
Test: Fluorescence polarization (FP) competition assay, Cy5-Nrf2 peptide probe
Assay type: binding
Conditions: heterologous competition FP; Keap1 Kelch 14 nM, Cy5-Nrf2 probe 3 nM, 4% DMSO; mean ± SEM
Method: The binding affinities between the fluorescent peptide probe Cy5-Nrf2 (SEQ: Cy5-[…]-NH2) and the human Keap1 Kelch domain were determined as Kd values by saturation binding experiments, where increasing concentrations of Keap1 (0-300 nM) were added to a fixed concentration of peptide probe (3 nM). The assay was performed in a 1× HBSTET buffer (10 mM HEPES, 150 mM NaCl, 0.005% Tween20, 3 mM ethylenediaminetetraacetic acid (EDTA), 1 mM TCEP, pH=7.4) using black flat-bottom 384-well plates (Corning Life Sciences, NY), a volume of 30 μL/well, and a final DMSO concentration of 4% or 8%. The assay plate was spun down to ascertain proper mixing and removal of potential air bubbles and incubated for 10-15 min at room temperature before measuring the FP levels on a Safire2 plate reader (Tecan, Mannedorf, Switzerland). The g-factor was adjusted at each experiment so that a series of three blank wells containing probe but no Keap1 Kelch defined the baseline FP value. The Cy5-Nrf2 probe was measured at excitation/emission values of 635:670 nm. The FP values were fitted to the one-site specific binding equation: Y=Bmax×X/(Kd+X), with Bmax being the maximal FP value, X the Keap1 Kelch concentration, and Y the variable FP values. The Kd values were derived from the resulting binding saturation curve as being equal to the Keap1 Kelch concentration, where the curve is half-saturated.
The affinities between nonfluorescent small molecule Keap1 inhibitors and Keap1 Kelch were determined as Ki values in a heterologous competition FP binding assay. This was done by adding increasing concentration of test compound (2-fold serial dilutions, 12 concentrations tested per inhibition curve as duplicates) to a fixed concentration of Keap1 Kelch (14 nM) and the Cy5-Nrf2 peptide probe (3 nM) in the same HBSTET buffer and conditions as described above (final DMSO concentrations were 4%). FP values were fitted to the equation Y=Bottom+(Top−Bottom)/[1+(10^HillSlope×(log IC50−X))], where X is the logarithmic value of compound concentration. Hereby, the IC50 value was obtained, which together with the […] value and probe and Keap1 Kelch concentrations was used to calculate the theoretical competitive inhibition constant, the Ki value. 43 Ki values are shown as mean±SEM (standard error of mean) if based on two or more individual measurements.

T1 sequence (Q14145 321-609): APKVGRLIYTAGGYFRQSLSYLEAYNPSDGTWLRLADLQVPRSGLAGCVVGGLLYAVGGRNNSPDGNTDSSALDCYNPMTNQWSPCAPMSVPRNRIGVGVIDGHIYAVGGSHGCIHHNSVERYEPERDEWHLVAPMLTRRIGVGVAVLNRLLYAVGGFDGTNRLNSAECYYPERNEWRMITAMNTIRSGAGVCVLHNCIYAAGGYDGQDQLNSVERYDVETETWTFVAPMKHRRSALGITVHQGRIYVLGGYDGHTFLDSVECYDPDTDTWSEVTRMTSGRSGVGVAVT

SMILES	Ki [µM]
O=C(O)CC(c1ccc2c(c1)OCO2)c1ccc2ccc(OCC(=O)NC34CC5CC(CC(C5)C3)C4)cc2c1 [6e, 3-(7-(2-(((1S,3s)-adamantan-1-yl)amino)-2-oxoethoxy)naphthalen-2-yl)-3-(benzo[d][1,3]dioxol-5-yl)propanoic acid]	0.516 ± 0.115
Cc1ccc(Cl)cc1C(CC(=O)O)c1ccc2ccc(OCC(=O)NC3CCCCC3)cc2c1 (stereo not shown) [3p, 3-(5-Chloro-2-methylphenyl)-3-(7-(2-(cyclohexylamino)-2-oxoethoxy)naphthalen-2-yl)propanoic acid]	0.234 ± 0.04
O=C(O)CC(c1ccc2c(c1)OCCO2)c1ccc2ccc(OCC(=O)NC3C=CCCC3)cc2c1 (stereo not shown) [4d, 3-(7-(2-(cyclohex-2-en-1-ylamino)-2-oxoethoxy)naphthalen-2-yl)-3-(2,3-dihydrobenzo[b][1,4]dioxin-6-yl)propanoic acid]	0.02 ± 0.002
O=C(O)CC(c1ccc2c(c1)OCO2)c1ccc2ccc(OCC(=O)N[C@H]3CC[C@H](C(F)(F)F)CC3)cc2c1 (stereo partly drawn) [6i, 3-(benzo[d][1,3]dioxol-5-yl)-3-(7-(2-oxo-2-((trans-4-(trifluoromethyl)cyclohexyl)amino)ethoxy)naphthalen-2-yl)propanoic acid]	0.397 ± 0.041
Cc1nc2[nH]ccc2cc1C(CC(=O)O)c1ccc2ccc(OCC(=O)NC3CCCCC3)cc2c1 (stereo not shown) [3n, 3-(7-(2-(cyclohexylamino)-2-oxoethoxy)naphthalen-2-yl)-3-(6-methyl-1H-pyrrolo[2,3-b]pyridin-5-yl)propanoic acid]	0.129 ± 0.013
O=C(O)CC(c1ccccc1)c1ccc2ccc(OCC(=O)NC3CCCCCC3)cc2c1 (stereo not shown) [2a, 3-(7-(2-(Cycloheptylamino)-2-oxoethoxy)naphthalen-2-yl)-3-phenylpropanoic acid]	1.1 ± 0.1
COc1ccc(C(CC(=O)O)c2ccc3ccc(OCC(=O)NC4CCCCCC4)cc3c2)cc1C (stereo not shown) [2j, 3-(7-(2-(Cycloheptylamino)-2-oxoethoxy)naphthalen-2-yl)-3-(4-methoxy-3-methylphenyl)propanoic acid]	0.61 ± 0.06
Cc1cc2c(cc1C(CC(=O)O)c1ccc3ccc(OCC(=O)NC4CCCCCC4)cc3c1)OCCO2 (stereo not shown) [2u, 3-(7-(2-(Cycloheptylamino)-2-oxoethoxy)naphthalen-2-yl)-3-(7-methyl-2,3-dihydrobenzo[b][1,4]dioxin-6-yl)propanoic acid]	0.009 ± 0.003
Cc1cc2c(cc1C(CC(=O)O)c1ccc3ccc(OCC(=O)NC4CCCCC4)cc3c1)OCO2 (stereo not shown) [3g, 3-(7-(2-(cyclohexylamino)-2-oxoethoxy)naphthalen-2-yl)-3-(6-methylbenzo[d][1,3]dioxol-5-yl)propanoic acid]	0.018 ± 0.006
O=C(O)CCc1ccc2ccc(OCC(=O)NC3CCOCC3)cc2c1 [1b, 3-(7-(2-Oxo-2-((tetrahydro-2H-pyran-4-yl)amino)ethoxy)naphthalen-2-yl)propanoic acid]	38 ± 3
O=C(O)CC(c1ccc2c(c1)OC(F)(F)O2)c1ccc2ccc(OCC(=O)NC3C=CCCC3)cc2c1 (stereo not shown) [4f, 3-(7-(2-(Cyclohex-2-en-1-ylamino)-2-oxoethoxy)naphthalen-2-yl)-3-(2,2-difluorobenzo[d][1,3]dioxol-5-yl)propanoic acid]	0.03 ± 0.002
COc1cccc(C(CC(=O)O)c2ccc3ccc(OCC(=O)NC4CCCCCC4)cc3c2)c1 (stereo not shown) [2h, 3-(7-(2-(Cycloheptylamino)-2-oxoethoxy)naphthalen-2-yl)-3-(3-methoxyphenyl)propanoic acid]	0.284 ± 0.03
CCn1nnc2c(C)c(C(CC(=O)O)c3ccc4ccc(OCC(=O)NC5CCCCC5)cc4c3)ccc21 (stereo not shown) [3h, 3-(7-(2-(cyclohexylamino)-2-oxoethoxy)naphthalen-2-yl)-3-(1-ethyl-4-methyl-1H-benzo[d][1,2,3]triazol-5-yl)propanoic acid]	0.0048 ± 0.001
O=C(O)CC(c1ccc2c(c1)OCO2)c1ccc2ccc(OCC(=O)NC3CCC(F)(F)CC3)cc2c1 (stereo not shown) [6b, 3-(benzo[d][1,3]dioxol-5-yl)-3-(7-(2-((4,4-difluorocyclohexyl)amino)-2-oxoethoxy)naphthalen-2-yl)propanoic acid]	0.08 ± 0.01
O=C(O)CC(c1ccc(Cl)cc1)c1ccc2ccc(OCC(=O)NC3CCCCCC3)cc2c1 (stereo not shown) [2c, 3-(4-Chlorophenyl)-3-(7-(2-(cycloheptylamino)-2-oxoethoxy)naphthalen-2-yl)propanoic acid]	0.294 ± 0.03
O=C(O)CC(c1ccc2ccc(OCC(=O)NC3C=CCCC3)cc2c1)c1ccc2occc2c1 (stereo not shown) [4g, 3-(Benzofuran-5-yl)-3-(7-(2-(cyclohex-2-en-1-ylamino)-2-oxoethoxy)naphthalen-2-yl)propanoic acid]	0.021 ± 0.002

SMILES	Ki [µM]
COc1ccc(C(CC(=O)O)c2ccc3ccc(OCC(=O)NC4C=CCCC4)cc3c2)c(C)c1 (stereo not shown) [4k, 3-(7-(2-(cyclohex-2-en-1-ylamino)-2-oxoethoxy)naphthalen-2-yl)-3-(4-methoxy-2-methylphenyl)propanoic acid]	0.017 ± 0.004
Cc1c(Cl)cccc1C(CC(=O)O)c1ccc2ccc(OCC(=O)NC3CCCCC3)cc2c1 (stereo not shown) [3e, 3-(3-chloro-2-methylphenyl)-3-(7-(2-(cyclohexylamino)-2-oxoethoxy)naphthalen-2-yl)propanoic acid]	0.066 ± 0.006
Cc1cc2c(cc1C(CC(=O)O)c1ccc3ccc(OCC(=O)NC4C=CCCC4)cc3c1)CCO2 (stereo not shown) [4n, 3-(7-(2-(cyclohex-2-en-1-ylamino)-2-oxoethoxy)naphthalen-2-yl)-3-(6-methyl-2,3-dihydrobenzofuran-5-yl)propanoic acid]	0.018 ± 0.002
O=C(O)CC(c1ccc2c(c1)OCCO2)c1ccc2ccc(OCC(=O)NC3CCCCCC3)cc2c1 (stereo not shown) [2s, 3-(7-(2-(cycloheptylamino)-2-oxoethoxy)naphthalen-2-yl)-3-(2,3-dihydrobenzo[b][1,4]dioxin-6-yl)propanoic acid]	0.015 ± 0.003
O=C(O)CC(c1ccc2ccc(OCC(=O)N[C@H]3C[C@@H]4CC[C@H]3C4)cc2c1)c1cc2c(cc1Cl)OCO2 (stereo partly drawn) [5b, 3-(7-(2-(((1S,2S,4R)-bicyclo[2.2.1]heptan-2-yl)amino)-2-oxoethoxy)naphthalen-2-yl)-3-(6-chlorobenzo[d][1,3]dioxol-5-yl)propanoic acid]	0.004
Cc1c(Cl)cccc1C(CC(=O)O)c1ccc2ccc(OCC(=O)NC3CCCCCC3)cc2c1 (stereo not shown) [2l, 3-(3-chloro-2-methylphenyl)-3-(7-(2-(cycloheptylamino)-2-oxoethoxy)naphthalen-2-yl)propanoic acid]	0.06 ± 0.008
COc1ccc(C)c(C(CC(=O)O)c2ccc3ccc(OCC(=O)NC4CCCCC4)cc3c2)c1 (stereo not shown) [3m, 3-(7-(2-(cyclohexylamino)-2-oxoethoxy)naphthalen-2-yl)-3-(5-methoxy-2-methylphenyl)propanoic acid]	0.15 ± 0.014
O=C(O)CC(c1ccc2c(c1)OCO2)c1ccc2ccc(OCC(=O)NC3C=CCCC3)cc2c1 (stereo not shown) [4a, 3-(Benzo[d][1,3]dioxol-5-yl)-3-(7-(2-(cyclohex-2-en-1-ylamino)-2-oxoethoxy)naphthalen-2-yl)propanoic acid]	0.025 ± 0.002
O=C(O)CC(c1cccc(O)c1)c1ccc2ccc(OCC(=O)NC3CCCCCC3)cc2c1 (stereo not shown) [2g, 3-(7-(2-(Cycloheptylamino)-2-oxoethoxy)naphthalen-2-yl)-3-(3-hydroxyphenyl)propanoic acid]	0.203 ± 0.03
CC(C)CNC(=O)COc1ccc2ccc(C(CC(=O)O)c3ccc4c(c3)OCO4)cc2c1 (stereo not shown) [6c, 3-(benzo[d][1,3]dioxol-5-yl)-3-(7-(2-(isobutylamino)-2-oxoethoxy)naphthalen-2-yl)propanoic acid]	0.138 ± 0.024
Cc1cc2occc2cc1C(CC(=O)O)c1ccc2ccc(OCC(=O)NC3CCCCC3)cc2c1 (stereo not shown) [3s, 3-(7-(2-(cyclohexylamino)-2-oxoethoxy)naphthalen-2-yl)-3-(6-methylbenzofuran-5-yl)propanoic acid]	0.024 ± 0.001
Cc1cc2c(cc1C(CC(=O)O)c1ccc3ccc(OCC(=O)NC4CCCCC4)cc3c1)CCO2 (stereo not shown) [3t, 3-(7-(2-(cyclohexylamino)-2-oxoethoxy)naphthalen-2-yl)-3-(6-methyl-2,3-dihydrobenzofuran-5-yl)propanoic acid]	0.032 ± 0.001
O=C(O)CC(c1ccc2c(c1)OCO2)c1ccc2ncc(OCC(=O)NC3CCCCCC3)cc2c1 (stereo not shown) [9a, 3-(benzo[d][1,3]dioxol-5-yl)-3-(3-(2-(cycloheptylamino)-2-oxoethoxy)quinolin-6-yl)propanoic acid]	0.522 ± 0.067
COc1ccc(NC(=O)COc2ccc3ccc(CCC(=O)O)cc3c2)cc1 [1e, 3-(7-(2-((4-Methoxyphenyl)amino)-2-oxoethoxy)naphthalen-2-yl)propanoic acid]	75 ± 10
O=C(O)CC(c1ccc2ccc(OCC(=O)NC3CCCCCC3)cc2c1)c1ccc2occc2c1 (stereo not shown) [2t, 3-(Benzofuran-5-yl)-3-(7-(2-(cycloheptylamino)-2-oxoethoxy)naphthalen-2-yl)propanoic acid]	0.038 ± 0.002
